Among the data in BindingDB's records for doi:10.1021/jm800930w (Kyoto University, 2008) are IC50 values, retold here.

The experiment has as its target KiSS-1 receptor (Homo sapiens, UniProt Q969F8). The experiment can be described thus: Receptor Binding Assay. The following applies: pH 7.3; 25 °C.

KiSS-1 receptor, sequence (Q969F8 whole entry): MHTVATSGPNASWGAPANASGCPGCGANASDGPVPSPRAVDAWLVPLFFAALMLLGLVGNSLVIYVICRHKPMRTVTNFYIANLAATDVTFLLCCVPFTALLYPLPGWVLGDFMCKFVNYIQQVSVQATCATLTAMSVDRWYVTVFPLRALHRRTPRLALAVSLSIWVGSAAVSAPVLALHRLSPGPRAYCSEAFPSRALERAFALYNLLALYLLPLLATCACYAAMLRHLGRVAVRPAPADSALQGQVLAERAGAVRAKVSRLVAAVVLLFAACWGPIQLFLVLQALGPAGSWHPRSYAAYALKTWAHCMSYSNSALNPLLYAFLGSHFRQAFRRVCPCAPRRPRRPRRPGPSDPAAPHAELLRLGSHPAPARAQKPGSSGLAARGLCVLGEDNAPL

By IC50 is commonly meant the concentration that gives 50% inhibition. Turning to `CC(C)C[C@H](NC(=O)CNC(=O)[C@H](Cc1ccccc1)NC(=O)[C@H](CO)NC(=O)[C@H](CC(N)=O)NC(=O)[C@H](Cc1c[nH]c2ccccc12)NC(=O)[C@H](CC(N)=O)NC(=O)[C@@H](N)Cc1ccc(O)cc1)C(=O)N[C@@H](CCCNC(=N)N)C(=O)N[C@@H](Cc1ccccc1)C(N)=O` [(2S)-2-[(2S)-2-[(2S)-2-[(2S)-2-amino-3-(4-hydroxyphenyl)propanamido]butanediamido]-3-(1H-indol-3-yl)propanamido]-N-[(1S)-1-{[(1S)-1-[({[(1S)-1-{[(1S)-4-carbamimidamido-1-{[(1S)-1-carbamoyl-2-phenylethyl]carbamoyl}butyl]carbamoyl}-3-methylbutyl]carbamoyl}methyl)carbamoyl]-2-phenylethyl]carbamoyl}-2-hydroxyethyl]butanediamide], the IC50 was 0.12 nM.
